Reference: patent publication US20250066322A1, “SUBSTITUTED HETEROCYCLIC COMPOUNDS” (BRISTOL-MYERS SQUIBB COMPANY, priority 2021, published 2025)

What follows are molecules tested on IFNα-Induced STAT Phosphorylation (pSTAT5) (assay: IFNα-Induced STAT Phosphorylation in Human Whole Blood). Conditions: 1 h incubation with compound, then 1000 U/mL recombinant human IFNα A/D for 15 min, pSTAT5 in CD3 positive population, read-out: Human Whole blood IFNa pSTAT5 IC50.
Format: cell-based
Experimental: IFNα-Induced STAT Phosphorylation in Human Whole Blood
After an hour long incubation with compound, human whole blood (drawn with ACD-A as anticoagulant) was stimulated with 1000 U/mL recombinant human IFNα A/D (R&D Systems 11200-2) for 15 min. The stimulation was stopped by adding Fix/Lyse buffer (BD 558049). Cells were stained with a CD3 FITC antibody (BD 555916), washed, and permeabilized on ice using Perm III buffer (BD 558050). Cells were then stained with an Alexa-Fluor 647 pSTAT5 (pY694) antibody (BD 612599) for 60 min prior to analysis on the iQue Plus. The amount of pSTAT5 expression was quantitated by median fluorescence intensity after gating on the CD3 positive population.

Row | IC50 | Structure (SMILES)
1 | 50 nM | CCC(=O)c1cnc(NC(=O)C2CC2C)cc1Nc1ncccc1S(=O)(=O)C(F)F (single isomer, unassigned) [Example 21b, N-(4-((3-((difluoromethyl)sulfonyl)pyridin-2-yl)amino)-5-propionylpyridin-2-yl)-2-methylcyclopropane-1-carboxamide]
2 | 110 nM | [2H]C([2H])([2H])NC(=O)c1nnc(NC(=O)C2CC2C)cc1Nc1ncccc1S(=O)(=O)C(F)F (single isomer, unassigned) [Example 13a, 4-((3-((difluoromethyl)sulfonyl)pyridin-2-yl)amino)-N-(methyl-d3)-6-(2-methylcyclopropane-1-carboxamido)pyridazine-3-carboxamide]
3 | 1400 nM | CCC(=O)c1cnc(NC(=O)C2CC2C)cc1Nc1ncccc1S(=O)(=O)C(F)F (single isomer, unassigned) [Example 21a, N-(4-((3-((difluoromethyl)sulfonyl)pyridin-2-yl)amino)-5-propionylpyridin-2-yl)-2-methylcyclopropane-1-carboxamide]
4 | 10 nM | [2H]C([2H])([2H])NC(=O)c1nnc(NC(=O)C2CC2C)cc1Nc1ncccc1S(=O)(=O)C(F)F (single isomer, unassigned) [Example 13b, 4-((3-((difluoromethyl)sulfonyl)pyridin-2-yl)amino)-N-(methyl-d3)-6-(2-methylcyclopropane-1-carboxamido)pyridazine-3-carboxamide]

Row | Structure (SMILES) | IC50
5 | CCC(=O)c1cnc(NC(=O)[C@@H]2CC23CC3)cc1Nc1ncccc1S(=O)(=O)C(F)F [Example 17] | 960 nM

Same assay, conditions: Homo sapiens, 1 h incubation with compound, then 1000 U/mL recombinant human IFNα A/D for 15 min, pSTAT5 in CD3 positive population, read-out: Human Whole blood IFNa pSTAT5 IC50

Row | IC50 | Structure (SMILES)
6 | 220 nM | CCC(=O)c1cnc(Nc2cccc(F)n2)cc1Nc1ncccc1S(=O)(=O)C(F)F [Example 22, 1-(4-((3-((difluoromethyl)sulfonyl)pyridin-2-yl)amino)-6-((6-fluoropyridin-2-yl)amino)pyridin-3-yl)propan-1-one]
7 | 670 nM | [2H]C([2H])([2H])NC(=O)c1nnc(NC(=O)OC)cc1Nc1ncccc1S(=O)(=O)C1CC1 [Example 2, methyl (5-((3-(cyclopropylsulfonyl)pyridin-2-yl)amino)-6-((methyl-d3)carbamoyl)pyridazin-3-yl)carbamate]
8 | 150 nM | CCC(=O)c1cnc(NC(=O)C2CC2)cc1Nc1ncccc1S(=O)(=O)C(F)F [Example 15, N-(4-((3-((difluoromethyl)sulfonyl)pyridin-2-yl)amino)-5-propionylpyridin-2-yl)cyclopropanecarboxamide]
9 | 210 nM | [2H]C([2H])([2H])NC(=O)c1nnc(NC(=O)N(C)C)cc1Nc1ncccc1S(=O)(=O)C(F)F [Example 6, 4-((3-((difluoromethyl)sulfonyl)pyridin-2-yl)amino)-6-(3,3-dimethylureido)-N-(methyl-d3)pyridazine-3-carboxamide]
10 | 70 nM | [2H]C([2H])([2H])NC(=O)c1nnc(NC(=O)C2CC2)cc1Nc1ncccc1S(=O)(=O)C1CC1 [Example 1, 6-(cyclopropanecarboxamido)-4-((3-(cyclopropylsulfonyl)pyridin-2-yl)amino)-N-(methyl-d3) pyridazine-3-carboxamide]
11 | 850 nM | CCC(=O)c1cnc(NC(=O)[C@H]2C[C@@H]2C)cc1Nc1ncccc1S(=O)(=O)C(F)F [Example 18, (1S,2S)-N-(4-((3-((difluoromethyl)sulfonyl)pyridin-2-yl)amino)-5-propionylpyridin-2-yl)-2-methylcyclopropane-1-carboxamide]
12 | 460 nM | CCC(=O)c1cnc(NC(=O)[C@H]2C[C@@H]2F)cc1Nc1ncccc1S(=O)(=O)C(F)F [Example 20, (1R,2S)-N-(4-((3-((difluoromethyl)sulfonyl)pyridin-2-yl)amino)-5-propionylpyridin-2-yl)-2-fluorocyclopropane-1-carboxamide]
13 | 250 nM | [2H]C([2H])([2H])NC(=O)c1nnc(NC(=O)OC)cc1Nc1ncccc1S(=O)(=O)C(F)F [Example 5, methyl (5-((3-((difluoromethyl)-sulfonyl)pyridin-2-yl)amino)-6-((methyl-d3)carbamoyl)-pyridazin-3-yl)carbamate]
14 | 980 nM | CCC(=O)c1cnc(NC(=O)N(C)C)cc1Nc1ncccc1S(=O)(=O)C(F)F [Example 16, 3-(4-((3-((difluoromethyl)sulfonyl)pyridin-2-yl)amino)-5-propionylpyridin-2-yl)-1,1-dimethylurea]
15 | 30 nM | [2H]C([2H])([2H])NC(=O)c1nnc(NC(=O)C2CC2)cc1Nc1ncccc1S(=O)(=O)C(F)F [Example 4, 6-(cyclopropanecarboxamido)-4-((3-((difluoromethyl)sulfonyl)-pyridin-2-yl)amino)-N-(methyl-d3)pyridazine-3-carboxamide]
16 | 590 nM | CCC(=O)c1cnc(NC(=O)C2CC2)cc1Nc1ncccc1S(=O)(=O)C1CC1 [Example 3, N-(4-((3-(cyclopropylsulfonyl)pyridin-2-yl)amino)-5-propionylpyridin-2-yl)cyclopropanecarboxamide]
